Reference: the supplement of paper PMC10307832

Assays:
Experiment in all cases: relative viability (nuclei count vs DMSO), 5 days (fraction); higher = more cells survive
EPLC-272H = test system: EPLC-272H
Procedure, shortened: (§1)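 Dosing by pin tool came one day after lung cancer cell lines were seeded in 1536-well plates, using either one drug or a fixed anchor-drug dose plus five library-drug doses (not always all listed) in √10 steps. After 5 days, nuclei were counted on 4× images. Relative viability is treated-well nuclei count divided by vehicle-well nuclei count, and values are medians of duplicate plates.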

NCI-H727 = test system: NCI-H727
Procedure, shortened: as §1

NCI-H358 = test system: NCI-H358
Procedure, shortened: as §1

NCI-H2087 = test system: NCI-H2087
Procedure, shortened: as §1

HCC-827 = test system: HCC-827
Procedure, shortened: as §1

NCI-H1792 = test system: NCI-H1792
Procedure, shortened: as §1

NCI-H1650 = test system: NCI-H1650
Procedure, shortened: as §1

LOU-NH91 = test system: LOU-NH91
Procedure, shortened: as §1

LU99A = test system: LU99A
Procedure, shortened: as §1

LK-2 = test system: LK-2
Procedure, shortened: as §1

NCI-H1563 = test system: NCI-H1563
Procedure, shortened: as §1

NCI-H522 = test system: NCI-H522
Procedure, shortened: as §1

NCI-H2126 = test system: NCI-H2126
Procedure, shortened: as §1

EKVX = test system: EKVX
Procedure, shortened: as §1

COR-L 105 = test system: COR-L 105
Procedure, shortened: as §1

BEN = test system: BEN
Procedure, shortened: as §1

SW 900 = test system: SW 900
Procedure, shortened: as §1

LCLC-97TM1 = test system: LCLC-97TM1
Procedure, shortened: as §1

SK-MES-1 = test system: SK-MES-1
Procedure, shortened: as §1

SW 1573 = test system: SW 1573
Procedure, shortened: as §1

EMC-BAC-2 = test system: EMC-BAC-2
Procedure, shortened: as §1

COCC1(CO)C(=O)C2CCN1CC2 (stereo not drawn) [PRIMA-1MET] + CCNC(=O)c1noc(-c2cc(C(C)C)c(O)cc2O)c1-c1ccc(CN2CCOCC2)cc1 [Luminespib] (partner 0.01 µM)
relative viability (EPLC-272H; first compound 2 µM): 0.277
relative viability (EPLC-272H; first compound 6.325 µM): 0.237
relative viability (EPLC-272H; first compound 20 µM): 0.146
relative viability (NCI-H727; first compound 0.2 µM): 0.615
relative viability (NCI-H727; first compound 0.6325 µM): 0.328
relative viability (NCI-H727; first compound 2 µM): 0.236
relative viability (NCI-H727; first compound 6.325 µM): 0.426
relative viability (NCI-H727; first compound 20 µM): 0.213
relative viability (NCI-H358; first compound 0.2 µM): 0.314
relative viability (NCI-H358; first compound 0.6325 µM): 0.312
relative viability (NCI-H358; first compound 2 µM): 0.354
relative viability (NCI-H358; first compound 6.325 µM): 0.416
relative viability (NCI-H358; first compound 20 µM): 0.287
relative viability (NCI-H2087; first compound 0.2 µM): 0.167
relative viability (NCI-H2087; first compound 0.6325 µM): 0.17
relative viability (NCI-H2087; first compound 2 µM): 0.153
relative viability (NCI-H2087; first compound 6.325 µM): 0.181
relative viability (NCI-H2087; first compound 20 µM): 0.0951
relative viability (HCC-827; first compound 0.2 µM): 0.761
relative viability (HCC-827; first compound 0.6325 µM): 0.624
relative viability (HCC-827; first compound 2 µM): 0.303
relative viability (HCC-827; first compound 6.325 µM): 0.477
relative viability (HCC-827; first compound 20 µM): 0.447
relative viability (NCI-H1792; first compound 0.2 µM): 0.533
relative viability (NCI-H1792; first compound 0.6325 µM): 0.491
relative viability (NCI-H1792; first compound 2 µM): 0.394
relative viability (NCI-H1792; first compound 6.325 µM): 0.466
relative viability (NCI-H1792; first compound 20 µM): 0.45
relative viability (NCI-H1650; first compound 0.2 µM): 0.228
relative viability (NCI-H1650; first compound 0.6325 µM): 0.212
relative viability (NCI-H1650; first compound 2 µM): 0.185
relative viability (NCI-H1650; first compound 6.325 µM): 0.193
relative viability (NCI-H1650; first compound 20 µM): 0.123
relative viability (LOU-NH91; first compound 0.2 µM): 0.347
relative viability (LOU-NH91; first compound 0.6325 µM): 0.353
relative viability (LOU-NH91; first compound 2 µM): 0.365
relative viability (LOU-NH91; first compound 6.325 µM): 0.42
relative viability (LOU-NH91; first compound 20 µM): 0.265
relative viability (LU99A; first compound 0.2 µM): 0.216
relative viability (LU99A; first compound 0.6325 µM): 0.233
relative viability (LU99A; first compound 2 µM): 0.203
relative viability (LU99A; first compound 6.325 µM): 0.221
relative viability (LU99A; first compound 20 µM): 0.0965
relative viability (LK-2; first compound 0.2 µM): 0.152
relative viability (LK-2; first compound 0.6325 µM): 0.188
relative viability (LK-2; first compound 2 µM): 0.158
relative viability (LK-2; first compound 6.325 µM): 0.167
relative viability (LK-2; first compound 20 µM): 0.121
relative viability (NCI-H1563; first compound 0.2 µM): 0.595
relative viability (NCI-H1563; first compound 0.6325 µM): 0.539
relative viability (NCI-H1563; first compound 6.325 µM): 0.529
relative viability (NCI-H1563; first compound 20 µM): 0.147
relative viability (NCI-H522; first compound 0.2 µM): 1.09
relative viability (NCI-H522; first compound 0.6325 µM): 0.899
relative viability (NCI-H522; first compound 2 µM): 1.1
relative viability (NCI-H522; first compound 6.325 µM): 0.989
relative viability (NCI-H522; first compound 20 µM): 0.838
relative viability (NCI-H2126; first compound 0.2 µM): 0.963
relative viability (NCI-H2126; first compound 0.6325 µM): 0.867
relative viability (NCI-H2126; first compound 2 µM): 0.89
relative viability (NCI-H2126; first compound 6.325 µM): 0.929
relative viability (NCI-H2126; first compound 20 µM): 0.885
relative viability (EKVX; first compound 0.2 µM): 1.03
relative viability (EKVX; first compound 0.6325 µM): 0.808
relative viability (EKVX; first compound 6.325 µM): 0.805
relative viability (EKVX; first compound 20 µM): 0.729
relative viability (COR-L 105; first compound 0.2 µM): 0.775
relative viability (COR-L 105; first compound 0.6325 µM): 0.687
relative viability (COR-L 105; first compound 2 µM): 0.845
relative viability (COR-L 105; first compound 6.325 µM): 0.808
relative viability (COR-L 105; first compound 20 µM): 0.111
relative viability (BEN; first compound 0.2 µM): 0.35
relative viability (BEN; first compound 0.6325 µM): 0.276
relative viability (BEN; first compound 6.325 µM): 0.24
relative viability (BEN; first compound 20 µM): 0.18
relative viability (SW 900; first compound 0.2 µM): 0.171
relative viability (SW 900; first compound 0.6325 µM): 0.176
relative viability (SW 900; first compound 2 µM): 0.162
relative viability (SW 900; first compound 6.325 µM): 0.136
relative viability (SW 900; first compound 20 µM): 0.091
relative viability (LCLC-97TM1; first compound 0.2 µM): 0.824
relative viability (LCLC-97TM1; first compound 0.6325 µM): 0.531
relative viability (LCLC-97TM1; first compound 2 µM): 0.877
relative viability (LCLC-97TM1; first compound 6.325 µM): 0.841
relative viability (LCLC-97TM1; first compound 20 µM): 0.674
relative viability (SK-MES-1; first compound 0.2 µM): 1.04
relative viability (SK-MES-1; first compound 0.6325 µM): 0.579
relative viability (SK-MES-1; first compound 2 µM): 0.885
relative viability (SK-MES-1; first compound 6.325 µM): 0.829
relative viability (SK-MES-1; first compound 20 µM): 0.746
relative viability (SW 1573; first compound 0.2 µM): 0.233
relative viability (SW 1573; first compound 2 µM): 0.214
relative viability (SW 1573; first compound 6.325 µM): 0.0379
relative viability (SW 1573; first compound 20 µM): 0.0227
relative viability (EMC-BAC-2; first compound 0.2 µM): 1.37
relative viability (EMC-BAC-2; first compound 0.6325 µM): 1.12
relative viability (EMC-BAC-2; first compound 6.325 µM): 1.23
relative viability (EMC-BAC-2; first compound 20 µM): 0.957
